In patent EP0071087A1, “Improved determination of creatine phosphokinase in body fluids” (SERAGEN DIAGNOSTICS, INC., priority 1981, dated 1983):
Values belong to the molecule of their own block, whether it stands above or below them.

Biological target: T1, Purified Human Erythrocyte Adenylate Kinase (Homo sapiens, UniProt P00568)
T1 construct: from tissue; host or cells: human erythrocytes
T1 sequence (P00568 1-194): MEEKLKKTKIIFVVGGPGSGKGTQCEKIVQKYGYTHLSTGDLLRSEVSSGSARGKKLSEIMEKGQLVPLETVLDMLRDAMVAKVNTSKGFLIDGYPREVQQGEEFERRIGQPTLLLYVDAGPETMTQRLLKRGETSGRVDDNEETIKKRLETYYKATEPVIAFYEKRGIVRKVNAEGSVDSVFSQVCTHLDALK
Experiment: Inhibition of purified human erythrocyte adenylate kinase in a CPK-UV (Oliver-Rosalki) assay
Format: biochemical
Settings: 37°C
Description: Table I illustrates the utilization of a high AMP/ ADP ratio in inhibiting purified human erythrocyte adenylate kinase. Residual AK activity is measured in reagent systems containing all necessary components of the Oliver-Rosalki CPK assay. The systems vary as a function of three components: AMP, ADP, and sodium fluoride. The data points cover a 1.43-5.72m Mole/liter ADP range and a 2.9-29.2m Mole/liter AMP range plus or minus 6m Mole/ liter NaF.
The reagents of Example 1 and 2 were utilized with the AMP and ADP concentration listed in the table, with or without 6 m mole/liter sodium fluoride.

Molecule: sodium fluoride [NaF]
- Measured Residual Adenylate Kinase (+NaF) (ADP 1.43 mM, AMP 0 mM, 6 m mole/liter NaF): 327 U/l
- Measured Residual Adenylate Kinase (+NaF) (ADP 2.86 mM, AMP 0 mM, 6 m mole/liter NaF): 398 U/l
- Measured Residual Adenylate Kinase (+NaF) (ADP 5.72 mM, AMP 0 mM, 6 m mole/liter NaF): 460 U/l

- Measured Residual Adenylate Kinase (+NaF) (ADP 1.43 mM, AMP 2.9 mM, AMP/ADP 2.0, 6 m mole/liter NaF): 24 U/l
- Measured Residual Adenylate Kinase (-NaF) (ADP 1.43 mM, AMP 2.9 mM, AMP/ADP 2.0, no NaF): 103 U/l
- Measured Residual Adenylate Kinase (+NaF) (ADP 1.43 mM, AMP 5.8 mM, AMP/ADP 4.1, 6 m mole/liter NaF): 13 U/l
- Measured Residual Adenylate Kinase (-NaF) (ADP 1.43 mM, AMP 5.8 mM, AMP/ADP 4.1, no NaF): 61 U/l
- Measured Residual Adenylate Kinase (+NaF) (ADP 1.43 mM, AMP 7.3 mM, AMP/ADP 5.1, 6 m mole/liter NaF): 10 U/l
- Measured Residual Adenylate Kinase (-NaF) (ADP 1.43 mM, AMP 7.3 mM, AMP/ADP 5.1, no NaF): 56 U/l
- Measured Residual Adenylate Kinase (+NaF) (ADP 1.43 mM, AMP 10.2 mM, AMP/ADP 7.1, 6 m mole/liter NaF): 7.7 U/l
- Measured Residual Adenylate Kinase (-NaF) (ADP 1.43 mM, AMP 10.2 mM, AMP/ADP 7.1, no NaF): 35 U/l
- Measured Residual Adenylate Kinase (+NaF) (ADP 1.43 mM, AMP 14.6 mM, AMP/ADP 10.2, 6 m mole/liter NaF): 5.3 U/l
- Measured Residual Adenylate Kinase (-NaF) (ADP 1.43 mM, AMP 14.6 mM, AMP/ADP 10.2, no NaF): 333 U/l
- Measured Residual Adenylate Kinase (+NaF) (ADP 1.43 mM, AMP 21.9 mM, AMP/ADP 15.3, 6 m mole/liter NaF): 4.6 U/l
- Measured Residual Adenylate Kinase (-NaF) (ADP 1.43 mM, AMP 21.9 mM, AMP/ADP 15.3, no NaF): 19 U/l
- Measured Residual Adenylate Kinase (+NaF) (ADP 1.43 mM, AMP 29.2 mM, AMP/ADP 20.4, 6 m mole/liter NaF): 1.7 U/l
- Measured Residual Adenylate Kinase (-NaF) (ADP 1.43 mM, AMP 29.2 mM, AMP/ADP 20.4, no NaF): 17 U/l
- Measured Residual Adenylate Kinase (+NaF) (ADP 2.86 mM, AMP 2.9 mM, AMP/ADP 1.0, 6 m mole/liter NaF): 51 U/l
- Measured Residual Adenylate Kinase (-NaF) (ADP 2.86 mM, AMP 2.9 mM, AMP/ADP 1.0, no NaF): 166 U/l
- Measured Residual Adenylate Kinase (+NaF) (ADP 2.86 mM, AMP 5.8 mM, AMP/ADP 2.0, 6 m mole/liter NaF): 26 U/l
- Measured Residual Adenylate Kinase (-NaF) (ADP 2.86 mM, AMP 5.8 mM, AMP/ADP 2.0, no NaF): 126 U/l
- Measured Residual Adenylate Kinase (+NaF) (ADP 2.86 mM, AMP 7.3 mM, AMP/ADP 2.6, 6 m mole/liter NaF): 22 U/l
- Measured Residual Adenylate Kinase (-NaF) (ADP 2.86 mM, AMP 7.3 mM, AMP/ADP 2.6, no NaF): 93 U/l
- Measured Residual Adenylate Kinase (+NaF) (ADP 2.86 mM, AMP 10.2 mM, AMP/ADP 3.6, 6 m mole/liter NaF): 17 U/l
- Measured Residual Adenylate Kinase (-NaF) (ADP 2.86 mM, AMP 10.2 mM, AMP/ADP 3.6, no NaF): 84 U/l
- Measured Residual Adenylate Kinase (+NaF) (ADP 2.86 mM, AMP 14.6 mM, AMP/ADP 5.1, 6 m mole/liter NaF): 13 U/l
- Measured Residual Adenylate Kinase (-NaF) (ADP 2.86 mM, AMP 14.6 mM, AMP/ADP 5.1, no NaF): 64 U/l
- Measured Residual Adenylate Kinase (+NaF) (ADP 2.86 mM, AMP 21.9 mM, AMP/ADP 7.7, 6 m mole/liter NaF): 10 U/l
- Measured Residual Adenylate Kinase (-NaF) (ADP 2.86 mM, AMP 21.9 mM, AMP/ADP 7.7, no NaF): 32 U/l
- Measured Residual Adenylate Kinase (+NaF) (ADP 2.86 mM, AMP 29.2 mM, AMP/ADP 10.2, 6 m mole/liter NaF): 5.3 U/l
- Measured Residual Adenylate Kinase (-NaF) (ADP 2.86 mM, AMP 29.2 mM, AMP/ADP 10.2, no NaF): 28 U/l
- Measured Residual Adenylate Kinase (+NaF) (ADP 5.72 mM, AMP 2.9 mM, AMP/ADP 0.51, 6 m mole/liter NaF): 108 U/l
- Measured Residual Adenylate Kinase (-NaF) (ADP 5.72 mM, AMP 2.9 mM, AMP/ADP 0.51, no NaF): 203 U/l
- Measured Residual Adenylate Kinase (+NaF) (ADP 5.72 mM, AMP 5.8 mM, AMP/ADP 1.0, 6 m mole/liter NaF): 55 U/l
- Measured Residual Adenylate Kinase (-NaF) (ADP 5.72 mM, AMP 5.8 mM, AMP/ADP 1.0, no NaF): 186 U/l
- Measured Residual Adenylate Kinase (+NaF) (ADP 5.72 mM, AMP 7.3 mM, AMP/ADP 1.3, 6 m mole/liter NaF): 54 U/l
- Measured Residual Adenylate Kinase (-NaF) (ADP 5.72 mM, AMP 7.3 mM, AMP/ADP 1.3, no NaF): 126 U/l
- Measured Residual Adenylate Kinase (+NaF) (ADP 5.72 mM, AMP 10.2 mM, AMP/ADP 1.8, 6 m mole/liter NaF): 37 U/l
- Measured Residual Adenylate Kinase (-NaF) (ADP 5.72 mM, AMP 10.2 mM, AMP/ADP 1.8, no NaF): 114 U/l
- Measured Residual Adenylate Kinase (+NaF) (ADP 5.72 mM, AMP 14.6 mM, AMP/ADP 2.6, 6 m mole/liter NaF): 31 U/l
- Measured Residual Adenylate Kinase (-NaF) (ADP 5.72 mM, AMP 14.6 mM, AMP/ADP 2.6, no NaF): 108 U/l
- Measured Residual Adenylate Kinase (+NaF) (ADP 5.72 mM, AMP 21.9 mM, AMP/ADP 3.8, 6 m mole/liter NaF): 21 U/l
- Measured Residual Adenylate Kinase (-NaF) (ADP 5.72 mM, AMP 21.9 mM, AMP/ADP 3.8, no NaF): 66 U/l
- Measured Residual Adenylate Kinase (+NaF) (ADP 5.72 mM, AMP 29.2 mM, AMP/ADP 5.1, 6 m mole/liter NaF): 13 U/l
- Measured Residual Adenylate Kinase (-NaF) (ADP 5.72 mM, AMP 29.2 mM, AMP/ADP 5.1, no NaF): 62 U/l
Molecule: Nc1ncnc2c1ncn2[C@@H]1O[C@H](COP(=O)(O)O)[C@@H](O)[C@H]1O [AMP, adenosine monophosphate]
